Legend:
[1] = biological target: Sigma non-opioid intracellular receptor 1 (Homo sapiens, UniProt Q99720); assay: DRUGMATRIX: Sigma1 radioligand binding (ligand: [3H] Haloperidol); assay type: cell membranes, Jurkat, Membrane; details: jurkat; Not Active = under 50% inhibition at 10 µM
[2] = biological target: Cannabinoid receptor 1 (Homo sapiens, UniProt P21554); assay type: cell membranes, Membrane; details: chem-1; also: in other assays of this panel Not Active means under 50% inhibition at 10 µM
[3] = DRUGMATRIX: Phorbol Ester radioligand binding (ligand: [3H] PDBu); assay type: cell membranes, Mus musculus, ICR, Brain, Membrane; details: Not Active = under 50% inhibition at 10 µM
[4] = DRUGMATRIX: Interleukin IL-1 radioligand binding (ligand: [125I] interleukin 1beta); assay type: cell membranes, Membrane; details: nih3t3; Not Active = under 50% inhibition at 10 µM
[5] = biological target: Insulin receptor (Rattus norvegicus, UniProt P15127); assay type: cell membranes, Wistar, Liver, Membrane; also: in other assays of this panel Not Active means under 50% inhibition at 10 µM
[6] = biological target: Delta-type opioid receptor (Homo sapiens, UniProt P41143); assay type: cell membranes, HEK293, Membrane; details: hek293; also: in other assays of this panel Not Active means under 50% inhibition at 10 µM
[7] = DRUGMATRIX: Glutamate, NMDA, Phencyclidine radioligand binding (ligand: [3H] TCP); assay type: cell membranes, Rattus norvegicus, Wistar, Cerebral cortex, Membrane; details: Not Active = under 50% inhibition at 10 µM
[8] = biological target: T1, Neutrophil elastase (Homo sapiens, UniProt P08246); assay type: tissue-based;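 also: inhibition of neutrophil elastase enzyme activity, measured with a p-nitroanilide-linked peptide substrate; in other assays of this panel Not Active means under 50% inhibition at 10 µM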
T1 sequence (P08246 whole entry): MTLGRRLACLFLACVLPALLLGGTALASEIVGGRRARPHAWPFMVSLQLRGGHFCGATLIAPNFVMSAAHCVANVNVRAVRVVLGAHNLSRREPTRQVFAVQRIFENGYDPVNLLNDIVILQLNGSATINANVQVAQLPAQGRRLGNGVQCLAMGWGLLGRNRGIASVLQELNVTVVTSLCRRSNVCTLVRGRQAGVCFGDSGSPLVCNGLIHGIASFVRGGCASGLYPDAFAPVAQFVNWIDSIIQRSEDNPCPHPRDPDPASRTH

[9] = biological target: Tyrosine-protein kinase Lck (Homo sapiens, UniProt P06239); assay: DRUGMATRIX: Protein Tyrosine Kinase, LCK enzyme inhibition (substrate: Poly(Glu:Tyr)); assay type: cell-based, Insect cells; details: insect cells; Not Active = under 50% inhibition at 10 µM
[10] = DRUGMATRIX: Leukotriene, BLT (LTB4) radioligand binding (ligand: [3H]LTB4); assay type: cell membranes, Membrane; details: u-937; Not Active = under 50% inhibition at 10 µM
[11] = biological target: T2, C-X-C chemokine receptor type 1 (Homo sapiens, UniProt P25024); also: in other assays of this panel Not Active means under 50% inhibition at 10 µM
T2 sequence (P25024 whole entry): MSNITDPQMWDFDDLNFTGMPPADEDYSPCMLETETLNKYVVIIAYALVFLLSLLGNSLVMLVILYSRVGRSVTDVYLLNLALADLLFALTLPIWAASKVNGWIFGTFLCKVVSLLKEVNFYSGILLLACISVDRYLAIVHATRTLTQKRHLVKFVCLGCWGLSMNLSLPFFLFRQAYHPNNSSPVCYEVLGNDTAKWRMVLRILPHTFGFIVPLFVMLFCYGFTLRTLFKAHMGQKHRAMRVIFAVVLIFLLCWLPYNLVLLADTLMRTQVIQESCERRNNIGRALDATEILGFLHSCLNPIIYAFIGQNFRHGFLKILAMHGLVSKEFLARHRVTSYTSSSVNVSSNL

[12] = biological target: Tyrosine-protein kinase Fyn (Homo sapiens, UniProt P06241); assay: biochemical; assay type: cell-based, Insect cells; details: insect cells
[13] = biological target: Mitogen-activated protein kinase 14 (Homo sapiens, UniProt Q16539); parameters: species or system Escherichia coli
[14] = biological target: T3, C-X-C chemokine receptor type 2 (Homo sapiens, UniProt P25025); assay type: cell membranes, Membrane; details: cho-k1; also: in other assays of this panel Not Active means under 50% inhibition at 10 µM
T3 sequence (P25025 whole entry): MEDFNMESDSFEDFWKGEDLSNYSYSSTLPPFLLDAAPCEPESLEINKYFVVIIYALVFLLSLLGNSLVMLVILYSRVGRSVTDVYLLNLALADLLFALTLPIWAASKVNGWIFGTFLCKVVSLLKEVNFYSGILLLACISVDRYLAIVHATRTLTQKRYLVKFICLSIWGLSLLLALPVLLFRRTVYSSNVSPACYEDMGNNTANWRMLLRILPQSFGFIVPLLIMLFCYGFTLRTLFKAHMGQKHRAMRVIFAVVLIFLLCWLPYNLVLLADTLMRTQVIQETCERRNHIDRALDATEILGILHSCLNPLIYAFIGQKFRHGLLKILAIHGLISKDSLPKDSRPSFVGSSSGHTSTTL

[15] = biological target: Vascular endothelial growth factor receptor 1 (Homo sapiens, UniProt P17948); assay type: cell-based; details: huvec; also: in other assays of this panel Not Active means under 50% inhibition at 10 µM
[16] = DRUGMATRIX: Imidazoline I2, Central radioligand binding (ligand: [3H] Idazoxan); assay type: cell membranes, Rattus norvegicus, Wistar, Cerebral cortex, Membrane; details: Not Active = under 50% inhibition at 10 µM
[17] = biological target: Beta-1 adrenergic receptor (Homo sapiens, UniProt P08588); assay: DRUGMATRIX: Adrenergic beta1 radioligand binding (ligand: [125I] Cyanopindolol); assay type: cell membranes, CHO-K1, Membrane; details: cho-k1; Not Active = under 50% inhibition at 10 µM
[18] = biological target: T4, 5-hydroxytryptamine receptor 2C (Homo sapiens, UniProt P28335); assay: DRUGMATRIX: Serotonin (5-Hydroxytryptamine) 5-HT2C radioligand binding (ligand: [3H] Mesulergine); assay type: cell membranes, CHO-K1, Membrane; details: cho-k1; Not Active = under 50% inhibition at 10 µM
T4 sequence (P28335 whole entry): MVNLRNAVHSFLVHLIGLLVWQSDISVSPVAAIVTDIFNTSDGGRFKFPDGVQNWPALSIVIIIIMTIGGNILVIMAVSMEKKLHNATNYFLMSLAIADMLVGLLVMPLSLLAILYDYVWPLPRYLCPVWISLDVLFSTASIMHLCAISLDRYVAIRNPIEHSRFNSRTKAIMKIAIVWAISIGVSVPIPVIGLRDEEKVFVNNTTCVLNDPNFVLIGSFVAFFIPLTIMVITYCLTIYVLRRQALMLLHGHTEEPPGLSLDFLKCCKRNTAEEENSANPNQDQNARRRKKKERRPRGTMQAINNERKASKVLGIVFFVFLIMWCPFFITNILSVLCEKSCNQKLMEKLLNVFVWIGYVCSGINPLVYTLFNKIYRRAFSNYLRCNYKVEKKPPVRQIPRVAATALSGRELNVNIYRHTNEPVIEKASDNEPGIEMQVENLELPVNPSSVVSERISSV

Sequence of Insulin receptor (P15127 27-759 limits assumed): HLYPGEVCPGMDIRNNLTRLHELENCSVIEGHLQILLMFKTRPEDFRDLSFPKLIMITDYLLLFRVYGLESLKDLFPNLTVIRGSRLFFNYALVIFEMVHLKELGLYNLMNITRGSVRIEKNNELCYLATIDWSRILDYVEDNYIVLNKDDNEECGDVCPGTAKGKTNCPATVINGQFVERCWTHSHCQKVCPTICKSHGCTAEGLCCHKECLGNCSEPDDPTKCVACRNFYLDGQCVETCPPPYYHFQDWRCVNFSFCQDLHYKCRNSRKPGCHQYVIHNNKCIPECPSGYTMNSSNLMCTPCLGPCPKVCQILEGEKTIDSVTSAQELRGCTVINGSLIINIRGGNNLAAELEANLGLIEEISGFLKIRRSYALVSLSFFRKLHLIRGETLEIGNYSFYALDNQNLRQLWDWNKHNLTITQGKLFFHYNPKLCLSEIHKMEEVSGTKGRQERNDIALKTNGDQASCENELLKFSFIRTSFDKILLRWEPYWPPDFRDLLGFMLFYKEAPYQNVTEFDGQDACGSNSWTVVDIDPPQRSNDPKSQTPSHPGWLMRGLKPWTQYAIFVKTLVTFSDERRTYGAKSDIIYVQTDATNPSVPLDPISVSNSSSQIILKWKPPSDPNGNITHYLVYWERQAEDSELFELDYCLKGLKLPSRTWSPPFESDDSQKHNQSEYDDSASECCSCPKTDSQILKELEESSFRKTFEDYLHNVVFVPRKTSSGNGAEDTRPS
Sequence of Insulin receptor (P15127 764-1383 limits assumed): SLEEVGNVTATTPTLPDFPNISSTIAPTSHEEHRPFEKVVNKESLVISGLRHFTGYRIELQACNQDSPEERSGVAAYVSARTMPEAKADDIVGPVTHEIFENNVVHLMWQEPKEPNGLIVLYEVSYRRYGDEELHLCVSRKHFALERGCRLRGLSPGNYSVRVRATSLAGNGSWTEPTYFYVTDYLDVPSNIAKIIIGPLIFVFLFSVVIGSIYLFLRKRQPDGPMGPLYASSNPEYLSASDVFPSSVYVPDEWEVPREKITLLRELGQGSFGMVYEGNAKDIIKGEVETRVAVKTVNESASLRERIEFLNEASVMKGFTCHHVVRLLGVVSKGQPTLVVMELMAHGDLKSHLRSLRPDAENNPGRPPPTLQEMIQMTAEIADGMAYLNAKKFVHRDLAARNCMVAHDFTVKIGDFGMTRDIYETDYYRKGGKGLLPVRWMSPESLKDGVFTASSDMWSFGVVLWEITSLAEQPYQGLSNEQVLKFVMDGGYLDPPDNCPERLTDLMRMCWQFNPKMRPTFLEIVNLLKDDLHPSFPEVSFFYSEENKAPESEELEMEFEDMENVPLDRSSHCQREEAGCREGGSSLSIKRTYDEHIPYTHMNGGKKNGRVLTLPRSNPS
Sequence of Vascular endothelial growth factor receptor 1 (P17948 whole entry): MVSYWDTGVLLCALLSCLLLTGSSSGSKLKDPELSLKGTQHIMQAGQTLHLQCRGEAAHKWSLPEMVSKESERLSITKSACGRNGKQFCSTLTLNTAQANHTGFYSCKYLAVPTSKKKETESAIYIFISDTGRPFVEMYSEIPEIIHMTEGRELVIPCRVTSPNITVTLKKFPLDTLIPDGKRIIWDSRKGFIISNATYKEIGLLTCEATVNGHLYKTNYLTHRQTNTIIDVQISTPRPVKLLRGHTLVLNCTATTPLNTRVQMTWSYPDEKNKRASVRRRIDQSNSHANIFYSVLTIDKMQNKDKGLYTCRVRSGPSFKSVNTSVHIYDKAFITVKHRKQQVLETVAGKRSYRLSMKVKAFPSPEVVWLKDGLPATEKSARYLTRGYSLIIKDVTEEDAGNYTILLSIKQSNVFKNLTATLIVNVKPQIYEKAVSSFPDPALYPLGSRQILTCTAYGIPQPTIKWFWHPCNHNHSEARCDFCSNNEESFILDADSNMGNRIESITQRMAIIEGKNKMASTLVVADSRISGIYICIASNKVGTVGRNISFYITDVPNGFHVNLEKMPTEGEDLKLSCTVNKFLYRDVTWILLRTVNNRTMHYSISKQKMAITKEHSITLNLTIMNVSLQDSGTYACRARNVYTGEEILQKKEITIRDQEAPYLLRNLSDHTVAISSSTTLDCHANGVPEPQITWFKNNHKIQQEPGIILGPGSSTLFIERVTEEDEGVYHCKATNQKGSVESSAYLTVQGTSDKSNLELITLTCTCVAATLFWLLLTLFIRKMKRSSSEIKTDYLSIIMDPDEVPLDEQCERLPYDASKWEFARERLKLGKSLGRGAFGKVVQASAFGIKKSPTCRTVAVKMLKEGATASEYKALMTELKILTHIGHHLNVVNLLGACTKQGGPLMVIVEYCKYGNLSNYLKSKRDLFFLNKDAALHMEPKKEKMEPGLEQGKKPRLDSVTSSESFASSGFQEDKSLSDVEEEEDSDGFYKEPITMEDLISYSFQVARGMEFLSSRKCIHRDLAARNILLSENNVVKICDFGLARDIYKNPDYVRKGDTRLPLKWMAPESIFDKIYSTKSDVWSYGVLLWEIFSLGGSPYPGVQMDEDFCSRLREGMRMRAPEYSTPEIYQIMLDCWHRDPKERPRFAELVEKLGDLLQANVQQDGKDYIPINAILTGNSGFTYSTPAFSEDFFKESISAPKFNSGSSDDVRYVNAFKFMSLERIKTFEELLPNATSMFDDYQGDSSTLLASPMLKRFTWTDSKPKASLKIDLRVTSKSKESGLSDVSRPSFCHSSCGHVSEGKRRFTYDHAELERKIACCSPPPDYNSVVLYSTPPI
Sequence of Cannabinoid receptor 1 (P21554 whole entry): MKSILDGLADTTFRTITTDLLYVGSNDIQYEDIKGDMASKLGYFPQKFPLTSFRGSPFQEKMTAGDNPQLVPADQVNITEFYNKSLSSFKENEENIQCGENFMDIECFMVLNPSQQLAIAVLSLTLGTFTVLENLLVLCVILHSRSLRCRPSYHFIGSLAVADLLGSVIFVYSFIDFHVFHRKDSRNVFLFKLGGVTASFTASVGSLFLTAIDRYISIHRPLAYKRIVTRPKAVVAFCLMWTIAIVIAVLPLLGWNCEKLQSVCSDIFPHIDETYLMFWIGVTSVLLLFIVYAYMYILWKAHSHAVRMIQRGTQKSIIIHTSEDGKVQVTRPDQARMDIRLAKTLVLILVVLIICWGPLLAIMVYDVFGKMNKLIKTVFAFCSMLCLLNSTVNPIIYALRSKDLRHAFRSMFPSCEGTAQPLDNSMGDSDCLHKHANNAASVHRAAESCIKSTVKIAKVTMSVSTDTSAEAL
Sequence of Sigma non-opioid intracellular receptor 1 (Q99720 whole entry): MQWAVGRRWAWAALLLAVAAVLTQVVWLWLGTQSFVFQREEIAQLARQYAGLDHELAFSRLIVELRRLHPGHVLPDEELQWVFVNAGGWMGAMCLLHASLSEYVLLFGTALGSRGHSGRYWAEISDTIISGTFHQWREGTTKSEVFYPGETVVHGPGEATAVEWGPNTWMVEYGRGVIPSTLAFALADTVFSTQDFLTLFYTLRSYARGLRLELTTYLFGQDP
Sequence of Mitogen-activated protein kinase 14 (Q16539 whole entry): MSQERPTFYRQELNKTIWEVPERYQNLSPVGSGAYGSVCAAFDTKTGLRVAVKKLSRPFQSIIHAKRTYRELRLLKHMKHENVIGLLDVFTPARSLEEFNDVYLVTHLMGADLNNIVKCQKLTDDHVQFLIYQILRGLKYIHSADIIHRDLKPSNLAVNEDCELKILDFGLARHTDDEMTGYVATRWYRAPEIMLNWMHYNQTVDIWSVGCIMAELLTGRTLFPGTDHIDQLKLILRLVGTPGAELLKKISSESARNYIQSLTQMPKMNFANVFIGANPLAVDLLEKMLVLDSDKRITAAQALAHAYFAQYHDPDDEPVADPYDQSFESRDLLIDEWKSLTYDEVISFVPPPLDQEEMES
Sequence of Tyrosine-protein kinase Lck (P06239 whole entry): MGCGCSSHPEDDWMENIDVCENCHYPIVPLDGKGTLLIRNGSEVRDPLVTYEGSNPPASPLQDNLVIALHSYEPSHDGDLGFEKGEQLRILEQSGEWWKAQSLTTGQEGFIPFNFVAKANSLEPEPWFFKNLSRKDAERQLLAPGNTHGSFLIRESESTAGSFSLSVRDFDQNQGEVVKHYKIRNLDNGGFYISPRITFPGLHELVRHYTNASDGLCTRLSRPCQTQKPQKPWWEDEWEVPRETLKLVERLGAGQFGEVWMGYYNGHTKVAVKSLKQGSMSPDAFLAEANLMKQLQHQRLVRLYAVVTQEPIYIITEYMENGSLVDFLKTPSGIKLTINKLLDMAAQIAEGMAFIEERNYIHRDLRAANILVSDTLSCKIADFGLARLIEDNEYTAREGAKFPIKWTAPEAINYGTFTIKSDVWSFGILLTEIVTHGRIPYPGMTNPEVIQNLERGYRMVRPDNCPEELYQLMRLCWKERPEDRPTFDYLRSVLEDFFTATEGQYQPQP
Sequence of Delta-type opioid receptor (P41143 whole entry): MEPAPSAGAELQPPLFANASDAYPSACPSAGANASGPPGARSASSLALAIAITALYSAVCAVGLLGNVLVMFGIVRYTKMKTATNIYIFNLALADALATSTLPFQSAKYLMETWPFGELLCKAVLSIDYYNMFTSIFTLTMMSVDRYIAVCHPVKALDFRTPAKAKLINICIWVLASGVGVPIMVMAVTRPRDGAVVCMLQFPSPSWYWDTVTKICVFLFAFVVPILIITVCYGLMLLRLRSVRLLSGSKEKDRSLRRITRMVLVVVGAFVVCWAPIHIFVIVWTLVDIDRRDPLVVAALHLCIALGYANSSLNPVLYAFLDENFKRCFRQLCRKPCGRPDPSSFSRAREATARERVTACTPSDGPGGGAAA

Cc1[nH]cnc1CN1CCc2c(c3ccccc3n2C)C1=O [ALOSETRON]
Not Active: IC50 [1] | IC50 [2] | IC50 [3] | Ki [3] | IC50 [4] | Ki [4] | IC50 [5] | IC50 [6] | IC50 [7] | Ki [7] | IC50 [8] | IC50 [9] | IC50 [10] | Ki [10] | IC50 [11] | IC50 [12] | IC50 [13] | IC50 [14] | IC50 [15] | IC50 [16] | Ki [16] | IC50 [17] | IC50 [18]

CCCc1cc(=O)[nH]c(=S)[nH]1 [PROPYLTHIOURACIL]
Not Active: IC50 [1] | IC50 [2] | IC50 [3] | Ki [3] | IC50 [4] | Ki [4] | IC50 [5] | IC50 [6] | IC50 [7] | Ki [7] | IC50 [8] | IC50 [9] | IC50 [10] | Ki [10] | IC50 [11] | IC50 [12] | IC50 [13] | IC50 [14] | IC50 [15] | IC50 [16] | Ki [16] | IC50 [17] | IC50 [18]

CARBOPLATIN
Not Active: IC50 [1] | Ki [1] | IC50 [2] | Ki [2] | IC50 [3] | Ki [3] | IC50 [4] | Ki [4] | IC50 [5] | Ki [5] | IC50 [6] | Ki [6] | IC50 [7] | Ki [7] | IC50 [8] | Ki [8] | IC50 [9] | Ki [9] | IC50 [10] | Ki [10] | IC50 [11] | Ki [11] | IC50 [12] | Ki [12] | IC50 [13] | Ki [13] | IC50 [14] | Ki [14] | IC50 [15] | Ki [15] | IC50 [16] | Ki [16] | IC50 [17] | Ki [17] | IC50 [18] | Ki [18]

Nc1nc2c(ncn2COC(CO)CO)c(=O)[nH]1 [GANCICLOVIR]
Not Active: IC50 [1] | IC50 [2] | IC50 [3] | Ki [3] | IC50 [4] | Ki [4] | IC50 [5] | IC50 [6] | IC50 [7] | Ki [7] | IC50 [8] | IC50 [9] | IC50 [10] | Ki [10] | IC50 [11] | IC50 [12] | IC50 [13] | IC50 [14] | IC50 [15] | IC50 [16] | Ki [16] | IC50 [17] | IC50 [18]

CC1(C)S[C@@H]2[C@H](NC(=O)[C@H](NC(=O)N3CCNC3=O)c3ccccc3)C(=O)N2[C@H]1C(=O)O [AZLOCILLIN]
Not Active: IC50 [1] | IC50 [2] | IC50 [3] | Ki [3] | IC50 [4] | Ki [4] | IC50 [5] | IC50 [6] | IC50 [7] | Ki [7] | IC50 [8] | IC50 [9] | IC50 [10] | Ki [10] | IC50 [11] | IC50 [12] | IC50 [13] | IC50 [14] | IC50 [15] | IC50 [16] | Ki [16] | IC50 [17] | IC50 [18]

COc1ccc2cc(CC(=O)O)ccc2c1
Not Active: IC50 [1] | IC50 [2] | IC50 [3] | Ki [3] | IC50 [4] | Ki [4] | IC50 [5] | IC50 [6] | IC50 [7] | Ki [7] | IC50 [8] | IC50 [9] | IC50 [10] | Ki [10] | IC50 [11] | IC50 [12] | IC50 [13] | IC50 [14] | IC50 [15] | IC50 [16] | Ki [16] | IC50 [17] | IC50 [18]

CCOC(=O)OC(C)OC1=C(C(=O)Nc2ccccn2)N(C)S(=O)(=O)c2ccccc21 (centres undefined) [AMPIROXICAM]
Not Active: IC50 [1] | IC50 [2] | IC50 [3] | Ki [3] | IC50 [4] | Ki [4] | IC50 [5] | IC50 [6] | IC50 [7] | Ki [7] | IC50 [8] | IC50 [9] | IC50 [10] | Ki [10] | IC50 [11] | IC50 [12] | IC50 [13] | IC50 [14] | IC50 [15] | IC50 [16] | Ki [16] | IC50 [17] | IC50 [18]

Source: ChEMBL document CHEMBL1909046, “DrugMatrix in vitro pharmacology data”
